From PubChem BioAssay (NCI)
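48-hour exposure; five concentrations; linearly interpolated endpoints. TGI is the concentration that stops growth completely.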

Tests used:
Assay in all cases: NCI tumour cell line growth inhibition, 48 h
[1] = system: HT29 colon
[2] = system: OVCAR-8 ovarian
[3] = system: SF-295 CNS
[4] = system: U251 CNS
[5] = system: HCT-15 colon
[6] = system: OVCAR-4 ovarian
[7] = system: HOP-62 NSCLC
[8] = system: NCI/ADR-RES ovarian
[9] = system: TK-10 renal
[10] = system: M14 melanoma
[11] = system: MALME-3M melanoma
[12] = system: UACC-62 melanoma
[13] = system: SK-MEL-5 melanoma
[14] = system: COLO 205 colon
[15] = system: SNB-75 CNS
[16] = system: HCC-2998 colon
[17] = system: 786-0 renal
[18] = system: MDA-N
[19] = system: RXF 393 renal
[20] = system: A549 NSCLC
[21] = system: SK-MEL-2 melanoma
[22] = system: CAKI-1 renal
[23] = system: HOP-92 NSCLC
[24] = system: NCI-H522 lung
[25] = system: KM12 colon
[26] = system: SW-620 colon
[27] = system: HS 578T breast
[28] = system: NCI-H460 lung
[29] = system: ACHN renal
[30] = system: MDA-MB-435
[31] = system: SF-268 CNS
[32] = system: MCF7 breast
[33] = system: NCI-H23 lung
[34] = system: SNB-19 CNS
[35] = system: K-562 leukemia
[36] = system: HCT-116 colon
[37] = system: IGROV1 ovarian
[38] = system: UO-31 renal
[39] = system: UACC-257 melanoma
[40] = system: RPMI-8226 leukemia
[41] = system: DU-145 prostate
[42] = system: BT-549 breast
[43] = system: MDA-MB-231 breast
[44] = system: A498 renal
[45] = system: OVCAR-3 ovarian
[46] = system: PC-3 prostate
[47] = system: MOLT-4 leukemia
[48] = system: SK-MEL-28 melanoma
[49] = system: SK-OV-3 ovarian
[50] = system: OVCAR-5 ovarian
[51] = system: EKVX NSCLC
[52] = system: LOX IMVI melanoma
[53] = system: SF-539 CNS
[54] = system: HL-60(TB) leukemia
[55] = system: CCRF-CEM leukemia
[56] = system: T-47D breast
[57] = system: NCI-H226 lung
[58] = system: SN12C renal
[59] = system: SR leukemia

Measured: TGI

COC(=O)C1CCC(=S)N1C(C)=O (stereo unspecified)
not listed: [52] | [53] | [54] | [55] | [56] | [57] | [58] | [59]
> 100 µM: all other assays above

Cc1cc(NS(=O)(=O)c2ccc(NC(NC(=O)OC(C)C)(C(F)(F)F)C(F)(F)F)cc2)nc(C)n1
not listed: [21] | [24] | [38] | [42]
> 100 µM: all other assays above
